Reference: publication PMC9413508, “PI3K/mTOR Dual Inhibitor Pictilisib Stably Binds to Site I of Human Serum Albumin as Observed by Computer Simulation, Multispectroscopic, and Microscopic Studies” (Molecules, 2022)

Biological target: T1, human serum albumin (HSA) (Homo sapiens, UniProt P02768)
T1 construct: gene ALB; fatty-acid-free HSA, commercial (Sigma-Aldrich); mature protein, 585 residues, monomer
Assay: intrinsic Trp fluorescence quenching, double-log plot
Type: binding
Conditions: 298 K, pH 7.4 PBS 10 mM, HSA 2 μM; λex 280 nm; n = 1.14; site I (subdomain IIA)
Procedure: intrinsic Trp fluorescence quenching, double-log plot on human serum albumin (HSA) | the association constant (Ka) between GDC-0941 and HSA was calculated

T1 sequence (P02768 25-609): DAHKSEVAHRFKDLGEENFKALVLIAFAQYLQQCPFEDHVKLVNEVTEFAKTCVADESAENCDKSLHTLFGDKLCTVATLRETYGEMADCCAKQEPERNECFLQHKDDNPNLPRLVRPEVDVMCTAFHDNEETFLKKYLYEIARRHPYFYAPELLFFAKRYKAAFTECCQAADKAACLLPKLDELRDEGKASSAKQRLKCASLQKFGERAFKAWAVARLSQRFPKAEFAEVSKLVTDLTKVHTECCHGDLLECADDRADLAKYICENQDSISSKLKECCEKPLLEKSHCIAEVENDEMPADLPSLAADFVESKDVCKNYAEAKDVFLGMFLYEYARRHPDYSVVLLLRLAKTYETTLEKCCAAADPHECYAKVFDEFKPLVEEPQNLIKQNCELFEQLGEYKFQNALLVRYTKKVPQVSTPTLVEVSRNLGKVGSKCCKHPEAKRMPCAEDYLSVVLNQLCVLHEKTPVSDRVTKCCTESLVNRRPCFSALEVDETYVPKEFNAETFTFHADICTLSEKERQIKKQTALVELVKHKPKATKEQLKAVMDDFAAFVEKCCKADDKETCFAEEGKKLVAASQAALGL

Ka (×10^5 M^-1): 4.09 ×10^5 M^−1
SMILES: CS(=O)(=O)N1CCN(Cc2cc3nc(-c4cccc5[nH]ncc45)nc(N4CCOCC4)c3s2)CC1 [GDC-0941]
